From patent US9376470B2, “Polypeptide having angiogenesis-inducing activity and antibacterial activity, and use thereof for medical purposes” (FunPep Inc., priority 2008, dated 2016)
Where two headings read alike, the source gives them in different places. Peptide text beside a SMILES is read from it.

How the values were obtained:
[1] = system: human vascular endothelial cells and fibroblast cells (co-culture); assay: Lumen formation with angiogenesis kit KZ-1000 (section 7); format: cell-based; conditions: for ability to form lumina: 0.5, 2.5 and 10 μg/mL; for The Area of Lumina (relative value, negative control as 100) / The Length of Lumina (relative value, negative control as 100): day 11
Experimental: Using an angiogenesis kit available from KURABO […] LTD. (Product No.: KZ-1000), lumen formation by the polypeptides was evaluated. Vascular endothelial growth factor A (VEGF-A) as a positive control, and polypeptide-free, unstimulated group as a negative control, were used.
Using a special medium for angiogenesis which was attached to the kit, each polypeptide was prepared such that the concentration thereof was respectively 0.5, 2.5 and 10 μg/mL. To a 24-well plate in which cells were plated (the cells were those obtained by co-culturing human vascular endothelial cells and fibroblast cells at an optimum concentration) which was attached to the kit, the special medium for angiogenesis containing each polypeptide was added, and the cells were cultured at 37° C. under 5% CO2. The medium was replaced with a medium containing the same additive on day 4, day 7 and day 9 of culture. On day 11 from the beginning of the culture, staining was performed using a kit for staining lumina (for CD31 antibody staining) according to the following procedure.
The media were removed, and washing was performed with Dulbecco's phosphate buffered saline (PBS(−)). Thereafter, ice-cooled 70% ethanol was added to the plate, and the cells were fixed. Each well was washed with a blocking solution (Dulbecco's phosphate buffered saline (PBS(−)) containing 1% BSA). To each well, 0.5 mL of the primary antibody for CD31 staining (mouse anti-human CD31 antibody) 4000-fold diluted with the blocking solution was added, and then the plate was incubated for 60 minutes at 37° C. After the completion of the incubation, each well was washed totally 3 times with 1 mL of the blocking solution. Then, 0.5 mL of the secondary antibody solution (goat anti-mouse IgG/alkaline phosphatase conjugate) 500-fold diluted with the blocking solution was added to each well. The plate was incubated for 60 minutes at 37° C., and thereafter each well was washed 3 times with 1 mL of distilled water. During that period, 2 tablets of BCIP/NBT were dissolved into distilled water, and the obtained solution was filtered through a filter having a pore size of […] to prepare a substrate solution. To each well, 0.5 mL of the prepared BCIP/NBT substrate solution was added, and the plate was incubated at 37° C. until the lumina turned to deep purple (typically for 5-10 minutes). After the completion of the incubation, each well was washed 3 times with 1 mL of distilled water. After washing, the washing solution was removed by aspiration, and the plate was left to stand and dry naturally. After drying, photographs of each well were taken under a microscope.
Each of the obtained images was quantified using an angiogenesis quantification software. The area and length of formed lumina observed in each visual field were measured on the basis of the scale of an angiogenesis quantification software available from KURABO […] LTD. (angiogenesis quantification software Ver 1.0), and evaluated on the basis of the ratio of the area or length of polypeptide-containing groups relative to the area or length of the negative control group.

[2] = system: Crl:CD (SD) rats; assay: Ability to form granulation tissue in paper disc model; format: in vivo, rat; conditions: 10 μg/disc (250 μg/mL×40 μl/disc), subcutaneous paper disc, eight days later
Text: Then, the ability to form granulation tissue of five polypeptides SR-1 to 5 in vivo was studied. […] The prepared paper discs were embedded subcutaneously into the back of Crl:CD (SD) rats (male, 9-week old, obtained from Charles River Laboratories Japan, Inc.). Eight days later, the paper discs were taken out, and the granulation tissues around the paper discs were collected to determine their wet weight.

[3] = in vitro; format: in vitro ADME, rat; conditions: for half-life: rat serum, 37° C.; for remaining at 0.5 h, 500 μg/mL / remaining at 1 h, 500 μg/mL / remaining at 10 min, 500 μg/mL: rat, serum
Experimental: (§1) Then, the stability of five polypeptides SR-1 to 5 in serum was evaluated.
(§2) In human serum (purchased from KAC Co., Ltd.), or in rat serum obtained by collecting blood from a rat, then leaving the collected blood to stand at room temperature followed by centrifugation, each of the peptides was dissolved so as to attain a final concentration of 500 μg/mL, and the obtained solutions were left to stand at 37° C. After leaving to stand for 10 min or 30 min or 60 min, these solutions were subjected to HPLC chromatogram analysis to detect peaks of the decomposition products, and calculate the ratio of the concentration of the peptides which remained in the solutions relative to the starting concentration. In addition, the half-lives of the peptides in serum were also calculated.
(§3) HPLC chromatogram analysis conditions are as follows.

[4] = format: in vitro ADME; conditions: human serum, 37° C.
Experimental: as §1, §2, §3

Row | Structure (SMILES) | ability to form lumina [1] | The Area of Lumina (relative value, negative control as 100) ([1]; polypeptide 0.5 μg/mL) | The Length of Lumina (relative value, negative control as 100) ([1]; polypeptide 0.5 μg/mL) | The Area of Lumina (relative value, negative control as 100) ([1]; polypeptide 10 μg/mL) | The Length of Lumina (relative value, negative control as 100) ([1]; polypeptide 10 μg/mL) | granulation tissue weight [2] | decomposition in rat serum [3] | half-life [3] [min] | remaining at 0.5 h, 500 μg/mL [3] [%] | remaining at 1 h, 500 μg/mL [3] [%] | half-life [4] [min] | remaining at 10 min, 500 μg/mL [3] [%]
1 | CC[C@H](C)[C@H](NC(=O)[C@H](CC(C)C)NC(=O)[C@H](CCCCN)NC(=O)[C@H](CC(C)C)NC(=O)[C@@H](N)CCSC)C(=O)N[C@@H](Cc1ccccc1)C(=O)N[C@@H](CC(C)C)C(=O)N[C@@H](Cc1c[nH]cn1)C(=O)N[C@@H](CCCNC(=N)N)C(=O)N[C@@H](CC(C)C)C(=O)N[C@@H](CCCCN)C(=O)N[C@@H](CCCNC(=N)N)C(=O)N[C@@H](CCSC)C(=O)N[C@@H](CCCNC(=N)N)C(=O)N[C@@H](CCCCN)C(=O)N[C@@H](CCCNC(=N)N)C(=O)N[C@@H](CC(C)C)C(=O)N[C@@H](CCCCN)C(=O)N[C@@H](CCCNC(=N)N)C(=O)N[C@@H](CCCCN)C(=O)O [SR-1] (H-MLKLIFLHRLKRMRKRLKRK-OH; N-terminus assumed) | high ability to form lumina | 94.6 | 97.4 | 156.6 | 149.5 | largest increase in the granulation tissue weight | completely decomposed | 3 | 0 | 0 | 4 | –
2 | CC(C)C[C@H](NC(=O)[C@H](CCCCN)NC(=O)[C@H](CCCNC(=N)N)NC(=O)[C@H](CCCCN)NC(=O)[C@H](CC(C)C)NC(=O)[C@H](CCCNC(=N)N)NC(=O)[C@H](CCCCN)NC(=O)[C@H](CCCNC(=N)N)NC(=O)[C@H](CC(C)C)NC(=O)[C@H](CCCNC(=N)N)NC(=O)[C@H](CCCNC(=N)N)NC(=O)[C@H](CCCCN)NC(=O)[C@H](CC(C)C)NC(=O)[C@H](CCCNC(=N)N)NC(=O)[C@H](Cc1c[nH]cn1)NC(=O)[C@H](CC(C)C)NC(=O)[C@H](Cc1ccccc1)NC(=O)[C@H](CCCNC(=N)N)NC(=O)[C@H](CC(C)C)NC(=O)[C@@H](N)CCC(=O)O)C(=O)N[C@@H](CCCNC(=N)N)C(N)=O [SR-2] (H-ELRFLHRLKRRLRKRLKRKLR-NH2; N-terminus assumed) | high ability to form lumina | 110.7 | 108.9 | 138.0 | 129.9 | – | 35-55% | 75 | – | 51.7 | 12 | 69
3 | CSCC[C@H](NC(=O)[C@H](CCCNC(=N)N)NC(=O)[C@H](CCCCN)NC(=O)[C@H](CC(C)C)NC(=O)[C@H](CCCNC(=N)N)NC(=O)[C@H](Cc1c[nH]cn1)NC(=O)[C@H](CC(C)C)NC(=O)[C@H](Cc1ccccc1)NC(=O)[C@H](CCCNC(=N)N)NC(=O)[C@H](CC(C)C)NC(=O)[C@@H](N)CCC(=O)O)C(=O)N[C@@H](CCCNC(=N)N)C(=O)N[C@@H](CCCCN)C(=O)N[C@@H](CCCNC(=N)N)C(=O)N[C@@H](CC(C)C)C(=O)N[C@@H](CCCCN)C(=O)N[C@@H](CCCNC(=N)N)C(=O)N[C@@H](CCCCN)C(=O)N[C@@H](CC(C)C)C(=O)N[C@@H](CCCNC(=N)N)C(N)=O [SR-3] (H-ELRFLHRLKRMRKRLKRKLR-NH2; N-terminus assumed) | high ability to form lumina | 100.8 | 101.9 | 118.0 | 122.6 | largest increase in the granulation tissue weight | 35-55% | 67 | – | 44.4 | 15 | 53
4 | CC[C@H](C)[C@H](NC(=O)[C@H](CC(C)C)NC(=O)[C@@H](N)CCCCN)C(=O)N[C@@H](Cc1ccccc1)C(=O)N[C@@H](CC(C)C)C(=O)N[C@@H](Cc1c[nH]cn1)C(=O)N[C@@H](CCCNC(=N)N)C(=O)N[C@@H](CC(C)C)C(=O)N[C@@H](CCCCN)C(=O)N[C@@H](CCCNC(=N)N)C(=O)N[C@@H](CCSC)C(=O)N[C@@H](CCCNC(=N)N)C(=O)N[C@@H](CCCCN)C(=O)N[C@@H](CCCNC(=N)N)C(=O)N[C@@H](CC(C)C)C(=O)N[C@@H](CCCCN)C(=O)N[C@@H](CCCNC(=N)N)C(=O)N[C@@H](CCCCN)C(=O)N[C@@H](CC(C)C)C(=O)N[C@@H](CCCNC(=N)N)C(N)=O [SR-4] (H-KLIFLHRLKRMRKRLKRKLR-NH2; N-terminus assumed) | – | 90.5 | 97.0 | 96.2 | 96.4 | – | 35-55% | 95 | 95 | 64.5 | 16 | –
5 | CSCC[C@H](NC(=O)[C@H](CCCNC(=N)N)NC(=O)[C@@H](N)CCCCN)C(=O)N[C@@H](CCCNC(=N)N)C(=O)N[C@@H](CCCCN)C(=O)N[C@@H](CCCNC(=N)N)C(=O)N[C@@H](CC(C)C)C(=O)N[C@@H](CCCCN)C(=O)N[C@@H](CCCNC(=N)N)C(=O)N[C@@H](CCCCN)C(=O)N[C@@H](CC(C)C)C(=O)N[C@@H](CCCNC(=N)N)C(=O)N[C@@H](CC(C)C)C(=O)N[C@@H](Cc1c[nH]c2ccccc12)C(=O)N[C@@H](Cc1c[nH]cn1)C(=O)N[C@@H](CCCNC(=N)N)C(=O)N[C@@H](CCCCN)C(=O)N[C@@H](CCCNC(=N)N)C(=O)N[C@@H](Cc1ccc(O)cc1)C(=O)N[C@@H](CCCCN)C(=O)O [SR-5] (H-KRMRKRLKRKLRLWHRKRYK-OH; N-terminus assumed) | – | 103.4 | 106.2 | 107.7 | 106.8 | – | completely decomposed | 4 | 0 | 0 | 21 | –
